Each structure is given as a SMILES string.

The experiment deals with HEK293-STF3A cells. Nature of the experiment: STF3A assay (luciferase reporter). The note with it: Homo sapiens, 24 h, 1 day of treatment. The format is cell-based. As to the method: HEK293-STF cell line was modified from Human embryonic kidney cell line HEK293 transfected with the STF reporter. HEK293-STF3A cell line was further modified from HEK293-STF cell line to express Wnt3A. This cell line was used to identify compounds that regulate either early or late signalling components of the Wnt pathway. L-Wnt3A (ATCC, #CRL-2647) cell line was used for providing Wnt3A conditioned media. The three cell lines were grown in DMEM (Dulbecco's Modified Eagle Medium) with 10% FBS (fetal bovine serum) incubated in 37° C. with 5% CO2. 2×10^4 HEK293-STF3A cells in 75 μl culture media were seeded in each well of white 96 well plates (Greiner #655098) and incubated overnight at 37° C. 25 μl serially diluted compound was added to the cells to give final concentration of 50 μM to 1.5 nM. After 1 day of treatment, 100 μl of Steady-Glo® Luciferase Assay reagent (#E2520, Promega) was added to each well and incubated for 10 minutes at room temperature. Luminescence was measured using Tecan Safire2® plate reader.
`Cc1nc2c(c(=O)n(C)c(=O)n2C)n1[C@@H](C)C(=O)Nc1ccc(-c2nccs2)cc1` [Compound 67, (S)—N-(4-(thiazol-2-yl)phenyl)-2-(1,3,8-trimethyl-2,6-dioxo-2,3-dihydro-1H-purin-7(6H)-yl)propanamide] showed an IC50 below 1000 nM. The value for `Cn1c(=O)c2c(nc(C3CC3)n2CC(=O)Nc2ccc(-c3ccsc3)cc2)n(C)c1=O` [Compound 68, 2-(8-cyclopropyl-1,3-dimethyl-2,6-dioxo-2,3-dihydro-1H-purin-7(6H)-yl)-N-(4-(thiophen-3-yl)phenyl)acetamide] was below 100 nM; that for `Cn1c(=O)c2c(nc(-c3ccccc3)n2CC(=O)Nc2ccc(-c3ccsc3)cc2)n(C)c1=O` [Compound 69, 2-(1,3-dimethyl-2,6-dioxo-8-phenyl-2,3-dihydro-1H-purin-7(6H)-yl)-N-(4-(thiophen-3-yl)phenyl)acetamide] was below 100 nM. With `Cn1c(=O)c2c(nc(C(F)(F)F)n2CC(=O)Nc2ccc(-c3ccsc3)cc2)n(C)c1=O` [Compound 70, 2-(1,3-dimethyl-2,6-dioxo-8-(trifluoromethyl)-2,3-dihydro-1H-purin-7(6H)-yl)-N-(4-(thiophen-3-yl)phenyl)acetamide] the figure was below 100 nM. The value for `O=C(Cn1cnc2[nH]c(=O)[nH]c(=O)c21)Nc1ccc(-c2ccsc2)cc1` [Compound 71, 2-(2,6-dioxo-2,3-dihydro-1H-purin-7(6H)-yl)-N-(4-(thiophen-3-yl)phenyl) acetamide] was above 10000 nM; that for `CCn1c(=O)c2c(ncn2CC(=O)Nc2ccc(-c3ccsc3)cc2)n(CC)c1=O` [Compound 72, 2-(1,3-diethyl-2,6-dioxo-2,3-dihydro-1H-purin-7(6H)-yl)-N-(4-(thiophen-3-yl)phenyl)acetamide] was below 100 nM; that for `CN(C)c1nc2c(c(=O)n(C)c(=O)n2C)n1CC(=O)Nc1ccc(-c2ccsc2)cc1` [Compound 73, 2-(8-(dimethylamino)-1,3-dimethyl-2,6-dioxo-2,3-dihydro-1H-purin-7(6H)-yl)-N-(4-(thiophen-3-yl)phenyl)acetamide] was below 100 nM.

`Cn1c(=O)c2c(nc(N3CCOCC3)n2CC(=O)Nc2ccc(-c3ccsc3)cc2)n(C)c1=O` [Compound 74, 2-(1,3-dimethyl-8-morpholino-2,6-dioxo-2,3-dihydro-1H-purin-7(6H)-yl)-N-(4-(thiophen-3-yl)phenyl)acetamide] returned an IC50 below 1000 nM. With `Cn1c(=O)c2c(nc(-c3cccs3)n2CC(=O)Nc2ccc(-c3ccsc3)cc2)n(C)c1=O` [Compound 75, 2-(1,3-dimethyl-2,6-dioxo-8-(thiophen-2-yl)-2,3-dihydro-1H-purin-7(6H)-yl)-N-(4-(thiophen-3-yl)phenyl)acetamide] the figure was below 1000 nM; with `Cn1c(=O)c2c(nc(Br)n2CC(=O)Nc2ccc(-c3ccsc3)cc2)n(C)c1=O` [Compound 76, 2-(8-bromo-1,3-dimethyl-2,6-dioxo-2,3-dihydro-1H-purin-7(6H)-yl)-N-(4-(thiophen-3-yl)phenyl)acetamide], below 100 nM. The value for `CC(C(=O)Nc1ccc(-c2ccccc2)nn1)n1cnc2c1c(=O)n(C)c(=O)n2C` (stereo not drawn) [Compound 77, 2-(1,3-dimethyl-2,6-dioxo-2,3-dihydro-1H-purin-7(6H)-yl)-N-(6-phenylpyridazin-3-yl)propanamide] was below 100 nM; that for `CC(C(=O)Nc1ccc(-c2ccc(F)cc2)nn1)n1cnc2c1c(=O)n(C)c(=O)n2C` (stereo not drawn) [Compound 78, 2-(1,3-dimethyl-2,6-dioxo-2,3-dihydro-1H-purin-7(6H)-yl)-N-(6-(4-fluorophenyl)pyridazin-3-yl)propanamide] was below 1000 nM.

Consider `C[C@@H](C(=O)Nc1ccc(-c2ccccc2)nn1)n1cnc2c1c(=O)n(C)c(=O)n2C` [Compound 79, (S)-2-(1,3-dimethyl-2,6-dioxo-2,3-dihydro-1H-purin-7(6H)-yl)-N-(6-phenylpyridazin-3-yl)propanamide], for which the IC50 was below 100 nM. With `C[C@H](C(=O)Nc1ccc(-c2ccccc2)nn1)n1cnc2c1c(=O)n(C)c(=O)n2C` [Compound 80, (R)-2-(1,3-dimethyl-2,6-dioxo-2,3-dihydro-1H-purin-7(6H)-yl)-N-(6-phenylpyridazin-3-yl)propanamide] the figure was above 10000 nM. Consider `CC(C(=O)Nc1ccc(-c2nccs2)cc1)n1cnc2c1c(=O)n(C)c(=O)n2C` (stereo not drawn) [Compound 81, 2-(1,3-dimethyl-2,6-dioxo-2,3-dihydro-1H-purin-7(6H)-yl)-N-(4-(thiazol-2-yl)phenyl)propanamide], for which the IC50 is below 100 nM. With `C[C@H](C(=O)Nc1ccc(-c2nccs2)cn1)n1cnc2c1c(=O)n(C)c(=O)n2C` [Compound 83, (R)-2-(1,3-dimethyl-2,6-dioxo-1,2,3,6-tetrahydro-7H-purin-7-yl)-N-(5-(thiazol-2-yl)pyridin-2-yl)propanamide] the figure was below 10000 nM. With `C[C@@H](C(=O)Nc1ccc(-c2nccs2)cn1)n1cnc2c1c(=O)n(C)c(=O)n2C` [Compound 84, (S)-2-(1,3-dimethyl-2,6-dioxo-1,2,3,6-tetrahydro-7H-purin-7-yl)-N-(5-(thiazol-2-yl)pyridin-2-yl)propanamide] the figure was below 100 nM; with `Cc1nc(-c2ccc(NC(=O)[C@@H](C)n3cnc4c3c(=O)n(C)c(=O)n4C)nc2)cs1` [Compound 85, (R)-2-(1,3-dimethyl-2,6-dioxo-2,3-dihydro-1H-purin-7(6H)-yl)-N-(5-(2-methylthiazol-4-yl)pyridin-2-yl)propanamide], below 5000 nM.

`Cc1nc(-c2ccc(NC(=O)[C@H](C)n3cnc4c3c(=O)n(C)c(=O)n4C)nc2)cs1` [Compound 86, (S)-2-(1,3-dimethyl-2,6-dioxo-2,3-dihydro-1H-purin-7(6H)-yl)-N-(5-(2-methylthiazol-4-yl)pyridin-2-yl)propanamide] showed an IC50 below 100 nM. `Cn1c(=O)c2c(ncn2CCC(=O)Nc2ccc(-c3ccsc3)cc2)n(C)c1=O` [Compound 87, 3-(1,3-dimethyl-2,6-dioxo-1,2,3,6-tetrahydro-7H-purin-7-yl)-N-(4-(thiophen-3-yl)phenyl)propanamide] gave an IC50 below 100 nM. The value for `Cn1c(=O)c2c(ncn2CCCC(=O)Nc2ccc(-c3ccsc3)cc2)n(C)c1=O` [Compound 88, 4-(1,3-dimethyl-2,6-dioxo-1,2,3,6-tetrahydro-7H-purin-7-yl)-N-(4-(thiophen-3-yl)phenyl)butanamide] was below 100 nM; that for `Cn1c(=O)c2c(ncn2CC(=O)Nc2ccc(-c3cccs3)cc2)n(C)c1=O` [Compound 89, 2-(1,3-dimethyl-2,6-dioxo-1,2,3,6-tetrahydro-7H-purin-7-yl)-N-(4-(thiophen-2-yl)phenyl)acetamide] was below 100 nM. Take `Cn1c(=O)c2c(ncn2CCC(=O)Nc2ccc(-c3cccs3)cc2)n(C)c1=O` [Compound 90, 3-(1,3-dimethyl-2,6-dioxo-1,2,3,6-tetrahydro-7H-purin-7-yl)-N-(4-(thiophen-2-yl)phenyl)propanamide]: the IC50 was below 100 nM. With `Cn1c(=O)c2c(ncn2CCCC(=O)Nc2ccc(-c3cccs3)cc2)n(C)c1=O` [Compound 91, 4-(1,3-dimethyl-2,6-dioxo-1,2,3,6-tetrahydro-7H-purin-7-yl)-N-(4-(thiophen-2-yl)phenyl)butanamide] the figure was below 100 nM.

For orientation: IC50 means the midpoint of a concentration-inhibition curve. Read a high IC50 as lower potency.

The values above are taken from patent US12559495B2 (Agency for Science, Technology and Research, priority 2013, dated 2026).
